Experimental findings from patent US20120220039A1, “METHOD AND SYSTEM FOR DETECTING RESIDUAL POISON IN HUMAN BODY” (THE HONG KONG UNIVERSITY OF SCIENCE AND TECHNOLOGY, priority 2009, published 2012) are described below.

The nature of the data set: Drug analysis of abuser in different hair segments by HPLC-Chip-MS/MS. It is filed as in vivo, human. From the text:
Parent drug and its metabolites normally appear in hair after 5-7 day once administered. Hair normally grows at 0.75-1 cm/month. Drug taking habit or history can be reflected by analysis in different hair segments.
Hair specimens were collected and cut into different lengths. With the application of different conditions in Examples 1-8, drug distribution in different hair segments was illustrated (FIGS. 29 and 30).

[1] abbreviates: Hair segment sample no. 1, hair length 0-4 cm, time 0-3 month.
[2] abbreviates: Hair segment sample no. 2, hair length 4-8 cm, time 3-6 month.
Setting [3] is: Hair segment sample no. 3, hair length 8-12 cm, time 6-9 month.
The mark [4] stands for this setting: Hair segment sample no. 4, hair length 12-16 cm, time 9-12 month.
[5] abbreviates: Hair segment sample no. 5, hair length 16-20 cm, time 12-15 month.
The mark [6] stands for this setting: Hair segment sample no. 6, hair length 20-24 cm, time 15-18 month.
The mark [7] stands for this setting: Hair segment sample no. 7, hair length 24-28 cm, time 18-21 month.
The mark [8] stands for this setting: Hair segment sample no. 8, hair length 28-32 cm, time 21-24 month.

`CN[C@@H](C)Cc1ccccc1` [Methamphetamine]: the “Concentration in hair segment” value under setting [1] is listed as 117.6 pg/mg; the “Concentration in hair segment” value under setting [2] came out at 263.6 pg/mg; the “Concentration in hair segment” value under setting [3] is 198.2 pg/mg; the “Concentration in hair segment” value under setting [4] is 201.1 pg/mg; the “Concentration in hair segment” value under setting [5] is listed as 107.3 pg/mg; the “Concentration in hair segment” value under setting [6] was found to be 920 pg/mg. Also, the “Concentration in hair segment” value under setting [7] stood at 156.3 pg/mg and the “Concentration in hair segment” value under setting [8] is listed as 273.5 pg/mg.
Methadone: the “Concentration in hair segment” value by setting is: under setting [1], 18.7 pg/mg; under setting [2], 18.3 pg/mg; under setting [3], 18.4 pg/mg; under setting [4], 18.3 pg/mg; under setting [5], 18.3 pg/mg; under setting [6], 18.3 pg/mg. In addition, the “Concentration in hair segment” value under setting [7] turned out to be 18.3 pg/mg and the “Concentration in hair segment” value under setting [8] was determined as 18.4 pg/mg.
